In ChEMBL document CHEMBL1122214, “omicron-Quinone formation in the biochemical oxidation of the antitumor drug N2-methyl-9-hydroxyellipticinium acetate” (J Med Chem, 1983) one finds IC50 and pKa data, which are given here for 3 molecules.

The test system of one data set is L1210. Description: In vitro antitumor activity against murine leukemia L1210 after 48 hour. In kind it is functional. The following applies: Mus musculus, L1210, 48 h; read-out: ID50 (the source's name).
Data set [1] is described as follows: Compound was evaluated for its pKa (weak acid) value. It is filed as physicochemical.

On to `Cc1c2c(c(C)c3c[n+](C)ccc13)C1=CC(=O)C=CC1=N2`, for which the IC50 in the data set with L1210 is 0.05 µM.

In general, pKa refers to the pH at which an ionisable group is half protonated. Lower therefore signals a group that gives up its proton readily. For `Cc1c2cc[n+](C)cc2c(C)c2c3c([nH]c12)C=CC(=O)C3=O`, in data set [1], the pKa came out at 5.1. Besides, the IC50 with L1210 was 9.6 µM. For the molecule `COC1=CC(=O)C(=O)c2c1nc1c(C)c3ccn(C)cc3c(C)c21`, the IC50 in the data set with L1210 stood at 5.8 µM.
